Here are results for 51 compounds from US11713307B2, “Heteroaryl-biphenyl amides for the treatment of PD-L1 diseases” (CHEMOCENTRYX, INC., priority 2019, dated 2023).

human PD-L1, sequence (Q9NZQ7 19-239): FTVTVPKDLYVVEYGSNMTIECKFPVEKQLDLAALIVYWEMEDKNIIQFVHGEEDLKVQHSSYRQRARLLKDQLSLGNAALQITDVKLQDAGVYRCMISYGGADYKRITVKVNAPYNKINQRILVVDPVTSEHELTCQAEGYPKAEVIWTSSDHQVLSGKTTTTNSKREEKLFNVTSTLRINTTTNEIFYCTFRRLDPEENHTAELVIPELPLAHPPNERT

The target of this assay is human PD-L1 (Homo sapiens (Human), UniProt Q9NZQ7). The experiment in a line: Enzyme-Linked Immunosorbent Assay—ELISA (PD-1/PD-L1 binding). To be noted: plates coated with human PD-L1; Human PD-1 and biotin added; absorbance at 450 nm. The protocol:
96 Well plates were coated with 1 μg/mL of human PD-L1 (obtained from R&D) in PBS overnight at 4° C. The wells were then blocked with 2% BSA in PBS (W/V) with 0.05% TWEEN-20 for 1 hour at 37° C. The plates were washed 3 times with PBS/0.05% TWEEN-20 and the compounds were serial diluted (1:5) in dilution medium and added to the ELISA plates. Human PD-1 and biotin 0.3 μg/mL (ACRO Biosystems) were added and incubated for 1 hour at 37° C. then washed 3 times with PBS/0.05% TWEEN-20. A second block was performed with 2% BSA in PBS (W/V)/0.05% TWEEN-20 for 10 min at 37° C. and the plates were washed 3 times with PBS/0.05% TWEEN-20. Streptavidin-HRP was added for 1 hour at 37° C. then the plates were washed 3 times with PBS/0.05% TWEEN-20. TMB substrate was added and reacted for 20 min at 37° C. A stop solution (2 N aqueous H2SO4) was added. The absorbance was read at 450 nm using a micro-plate spectrophotometer. The results are shown in Table 1: IC50 values are provided as follows: from 1000 to 10,000 nM (+); from 10 up to 1000 nM (++); less than 10 nM (+++).
For orientation: IC50 means the point on the concentration scale where inhibition reaches its midpoint. `COc1nc(-c2cccc(-c3cccc(NC(=O)c4nn(C)c(=O)n(C)c4=O)c3Cl)c2Cl)ccc1CNC[C@@H]1CCC(=O)N1` [Compound 1.064]: the IC50 is < 10 nM. The figure for `COc1nc(-c2cccc(-c3cccc(NC(=O)c4cn(C)c(=O)n(C)c4=O)c3Cl)c2Cl)cnc1CN1CCCC[C@H]1C(=O)O` [Compound 1.091] is < 10 nM; for `COc1nc(-c2cccc(-c3cccc(NC(=O)c4cn(C)c(=O)n(C)c4=O)c3C)c2Cl)ccc1CN(C)CCO` [Compound 1.052] it is < 10 nM; for `COc1nc(-c2cccc(-c3cccc(NC(=O)c4cn(C)c(=O)n(C)c4=O)c3Cl)c2Cl)ccc1CN[C@@H]1CCOC[C@@H]1O` [Compound 1.087] it is < 10 nM. The result for `COc1nc(-c2cccc(-c3cccc(NC(=O)c4cn(C)c(=O)n(C)c4=O)c3C)c2Cl)ccc1CNC[C@H](C)O` [Compound 1.029] reads < 10 nM; that for `CCc1nc(-c2cccc(-c3cccc(NC(=O)c4cn(C)c(=O)n(C)c4=O)c3Cl)c2Cl)cnc1CNC[C@@H]1CCC(=O)N1` [Compound 1.077], < 10 nM; that for `COc1nc(-c2cccc(-c3cccc(NC(=O)c4cn(C)c(=O)n(C)c4=O)c3C)c2Cl)cnc1CNC[C@@H]1CCC(=O)N1` [Compound 1.079], < 10 nM. On to `COc1nc(-c2cccc(-c3cccc(NC(=O)c4cn(C)c(=O)n(C)c4=O)c3Cl)c2Cl)ccc1CN1CC[C@@](C)(O)C1` [Compound 1.027], for which the IC50 is < 10 nM. The result for `COc1nc(-c2cccc(-c3cccc(NC(=O)c4cn(C)c(=O)n(C)c4=O)c3C)c2Cl)ccc1CN1CC(C)(O)C1` [Compound 1.038] reads < 10 nM; that for `COc1nc(-c2cccc(-c3cccc(NC(=O)c4cn(C)c(=O)n(C)c4=O)c3C)c2Cl)ccc1CN[C@@H]1CNC(=O)C1` [Compound 1.007], < 10 nM. Take `COc1nc(-c2cccc(-c3cccc(NC(=O)c4cn(C)c(=O)n(C)c4=O)c3C)c2Cl)ccc1CN1CCC(O)CC1` [Compound 1.046]: the IC50 was < 10 nM. With `COc1nc(-c2cccc(-c3cccc(NC(=O)c4cn(C)c(=O)n(C)c4=O)c3Cl)c2Cl)cnc1CNC[C@@H]1CCC(=O)N1` [Compound 1.003], the IC50 was < 10 nM. With `COc1cc(-c2cccc(-c3cccc(NC(=O)c4cn(C)c(=O)n(C)c4=O)c3Cl)c2Cl)ncc1CN1CC(C)(C(=O)O)C1` [Compound 1.083], the IC50 is < 10 nM. The result for `COc1cc(-c2cccc(-c3cccc(NC(=O)c4cn(C)c(=O)n(C)c4=O)c3Cl)c2Cl)ncc1CN1CC(O)C1` [Compound 1.080] reads 10 to 1000 nM; that for `COc1nc(-c2cccc(-c3cccc(NC(=O)c4cn(C)c(=O)n(C)c4=O)c3C)c2Cl)ccc1CN[C@@H]1CCCC[C@@H]1O` [Compound 1.017], < 10 nM; that for `COc1nc(-c2cccc(-c3cccc(NC(=O)c4cn(C)c(=O)n(C)c4=O)c3C)c2Cl)ccc1CN1CC(O)C1` [Compound 1.095], < 10 nM. The figure for `COc1nc(-c2cccc(-c3cccc(NC(=O)c4cn(C)c(=O)n(C)c4=O)c3C)c2Cl)ccc1CNC[C@@H]1CC(C)(C)C(=O)N1` [Compound 1.016] is < 10 nM; for `COc1nc(-c2cccc(-c3cccc(NC(=O)c4cn(C)c(=O)n(C)c4=O)c3Cl)c2Cl)ccc1CNCCO` [Compound 1.039] it is < 10 nM. With `COc1nc(-c2cccc(-c3cccc(NC(=O)c4cn(C)c(=O)n(C)c4=O)c3C)c2Cl)ccc1CN[C@@H](C)CO` [Compound 1.021], the IC50 was < 10 nM. The result for `COc1nc(-c2cccc(-c3cccc(NC(=O)c4cncn(C)c4=O)c3Cl)c2Cl)ccc1CNC[C@@H]1CCC(=O)N1` [Compound 1.060] reads < 10 nM; that for `COc1nc(-c2cccc(-c3cccc(NC(=O)c4cn(C)c(=O)n(C)c4=O)c3C)c2Cl)ccc1CN1CC[C@@](C)(O)C1` [Compound 1.048], < 10 nM; that for `COc1nc(-c2cccc(-c3cccc(NC(=O)c4cn(C)c(=O)n(C)c4=O)c3C)c2Cl)ccc1CN[C@H]1CCOC[C@H]1O` [Compound 1.042], < 10 nM.

Turning to `COc1nc(-c2cccc(-c3cccc(NC(=O)c4cn(C)c(=O)n(C)c4=O)c3Cl)c2Cl)ccc1CN(C)C[C@@H]1CCC(=O)N1` [Compound 1.058], the half-inhibitory concentration (IC50) lay within 10 to 1000 nM.

`CCc1nc(-c2cccc(-c3cccc(NC(=O)c4cn(C)c(=O)n(C)c4=O)c3Cl)c2Cl)ccc1CN1CC(O)C1` [Compound 1.072] registered a half-maximal inhibitory concentration (IC50) of 10 to 1000 nM. Take `COc1nc(-c2cccc(-c3cccc(NC(=O)c4cn(C)c(=O)n(C)c4=O)c3C)c2Cl)ccc1CNCC(C)(C)C(N)=O` [Compound 1.040]: the IC50 was < 10 nM. In the case of `COc1nc(-c2cccc(-c3cccc(NC(=O)c4cn(C)c(=O)n(C)c4=O)c3Cl)c2Cl)cnc1CN[C@H]1CCOC[C@H]1O` [Compound 1.004], the IC50 is < 10 nM. The result for `COc1nc(-c2cccc(-c3cccc(NC(=O)c4cn(C)c(=O)n(C)c4=O)c3C)c2Cl)ccc1CNC[C@@H]1CCC(=O)N1` [Compound 1.006] reads < 10 nM; that for `COc1nc(-c2cccc(-c3cccc(NC(=O)c4cn(C)c(=O)n(C)c4=O)c3C)c2Cl)ccc1CN1CC(C)(C(=O)O)C1` [Compound 1.053], < 10 nM. The figure for `COc1nc(-c2cccc(-c3cccc(NC(=O)c4cn(C)c(=O)n(C)c4=O)c3)c2Cl)ccc1CNC[C@@H]1CCC(=O)N1` [Compound 1.061] is < 10 nM; for `COc1nc(-c2cccc(-c3cccc(NC(=O)c4cn(C)c(=O)n(C)c4=O)c3C)c2Cl)ccc1CNCC(C)(C)CO` [Compound 1.049] it is < 10 nM. The figure for `COc1nc(-c2cccc(-c3cccc(NC(=O)c4cn(C)c(=O)n(C)c4=O)c3C)c2Cl)ccc1CNCC1(C)CCC(=O)N1` (stereo not drawn) [Compound 1.015] is < 10 nM; for `COc1nc(-c2cccc(-c3cccc(NC(=O)c4cn(C)c(=O)n(C)c4=O)c3C)c2Cl)ccc1CNCC1(O)CC1` [Compound 1.022] it is 1000 to 10000 nM; for `COc1nc(-c2cccc(-c3cccc(NC(=O)c4cn(C)c(=O)n(C)c4=O)c3C)c2Cl)ccc1CNCCO` [Compound 1.056] it is < 10 nM. In the case of `COc1nc(-c2cccc(-c3cccc(NC(=O)c4cn(C)c(=O)n(C)c4=O)c3C)c2Cl)ccc1CN[C@@H]1CCC[C@@H]1O` [Compound 1.011], the IC50 was < 10 nM. The result for `COc1nc(-c2cccc(-c3cccc(NC(=O)c4cn(C)c(=O)n(C)c4=O)c3Cl)c2Cl)ccc1CN1CC[C@@H](C(=O)O)C1` [Compound 1.074] reads < 10 nM; that for `COc1nc(-c2cccc(-c3cccc(NC(=O)c4cn(C)c(=O)n(C)c4=O)c3C)c2Cl)ccc1CN1CC2(CNC(=O)N2)C1` [Compound 1.025], < 10 nM; that for `COc1cc(-c2cccc(-c3cccc(NC(=O)c4cn(C)c(=O)n(C)c4=O)c3Cl)c2Cl)ncc1CN[C@@H]1CCOC[C@@H]1O` [Compound 1.097], < 10 nM. The figure for `COc1cc(-c2cccc(-c3cccc(NC(=O)c4cn(C)c(=O)n(C)c4=O)c3Cl)c2Cl)ncc1CN1CC(C(=O)O)C1` [Compound 1.086] is < 10 nM. The figure for `COc1nc(-c2cccc(-c3cccc(NC(=O)c4cn(C)c(=O)n(C)c4=O)c3Cl)c2Cl)ccc1CN1CC(C(=O)O)C1` [Compound 1.084] is < 10 nM; for `COc1nc(-c2cccc(-c3cccc(NC(=O)c4cn(C)c(=O)n(C)c4=O)c3Cl)c2Cl)ncc1CN[C@@H]1CCOC[C@@H]1O` [Compound 1.089] it is < 10 nM. For the compound `COc1nc(-c2cccc(-c3cccc(NC(=O)c4cn(C)c(=O)n(C)c4=O)c3C)c2Cl)ccc1CN1CC[C@](C)(O)C1` [Compound 1.019], the 50% inhibitory concentration (IC50) was < 10 nM. In the case of `COc1nc(-c2cccc(-c3cccc(NC(=O)c4cn(C)c(=O)n(C)c4=O)c3C)c2F)ccc1CN[C@@H]1CCOC[C@@H]1O` [Compound 1.024], the IC50 is < 10 nM. Regarding `COc1nc(-c2cccc(-c3cccc(NC(=O)c4cn(C)c(=O)n(C)c4=O)c3Cl)c2Cl)ccc1CN1CC(O)C1` [Compound 1.090], the IC50 was < 10 nM. The figure for `COc1nc(-c2cccc(-c3cccc(NC(=O)c4cn(C)c(=O)n(C)c4=O)c3F)c2Cl)ccc1CNC[C@@H]1CCC(=O)N1` [Compound 1.059] is < 10 nM; for `COc1cc(-c2cccc(-c3cccc(NC(=O)c4cn(C)c(=O)n(C)c4=O)c3C)c2C)cnc1CNCCO` [Compound 1.010] it is < 10 nM. The figure for `COc1nc(-c2cccc(-c3cccc(NC(=O)c4cn(C)c(=O)n(C)c4=O)c3Cl)c2Cl)cnc1CN[C@@H]1CNC(=O)C1` [Compound 1.002] is < 10 nM; for `COc1nc(-c2cccc(-c3cccc(NC(=O)c4cn(C)c(=O)n(C)c4=O)c3Cl)c2Cl)cnc1CN[C@@H]1CCC(=O)NC1` [Compound 1.001] it is < 10 nM; for `Cc1c(NC(=O)c2cn(C)c(=O)n(C)c2=O)cccc1-c1cccc(-c2ccc(CNC[C@@H]3CCC(=O)N3)c(C(F)(F)F)n2)c1Cl` [Compound 1.045] it is < 10 nM. For the compound `COc1nc(-c2cccc(-c3cccc(NC(=O)c4cn(C)c(=O)n(C)c4=O)c3Cl)c2Cl)ncc1CNC[C@@H]1CCC(=O)N1` [Compound 1.081], the IC50 was < 10 nM. In the case of `COc1nc(-c2cccc(-c3cccc(NC(=O)c4cn(C)c(=O)n(C)c4=O)c3C)c2C#N)ccc1CN[C@@H]1CCOC[C@@H]1O` [Compound 1.026], the IC50 was < 10 nM. As for `COc1nc(-c2cccc(-c3cccc(NC(=O)c4cn(C)c(=O)n(C)c4=O)c3C)c2Cl)ccc1CN1CC2(CCNC2=O)C1` [Compound 1.092], the IC50 is < 10 nM.
